# Results taken from patent US20100003217A1, “Compounds and Pharmaceutical Compositions for the Treatment of Viral Infections” (priority 2008, published 2010).
# Assays:
# [1] = test system: HCV genotype 1b replicon (GS4.1 cells); assay: In vitro combination of Compound 1 and ribavirin on HCV replicon (NS4A ELISA; MacSynergy II, CombiTool, CalcuSyn); type: cell-based; conditions: Hepatitis C virus, 72 h, single-drug titration experiments, three days
# Protocol: This setup was run in duplicate in each 96-well plate.
# Cells were incubated with inhibitors for three days at 37° C./5% CO2.
# After three days of drug treatment, media was removed from the plates via gentle tapping and the cells were fixed to the plates with 100 μL/well of 1:1 acetone:methanol.
# After one minute of incubation at room temperature, plates were washed three times with 100 μL/well of ELISA wash solution and then blocked with 150 μL/well of 10% FBS-TNE.
# After a one hour incubation period at 37° C., each plate was washed three times with 100 μL/well of ELISA wash solution. Color development was then initiated with 100 μL/well of OPD solution.
# After a 30 minute incubation period in the dark at room temperature, reactions were stopped by adding 100 μL of 2NH2SO4 to each well.
# The absorbance was measured at 490 nm on a Victor^3 V 1420 multilabel counter (Perkin Elmer).
# CYP2C8 = CYP2C8 (Homo sapiens, UniProt P10632); assay: Incubation with human recombinant CYP450 supersomes, 2C8; type: in vitro ADME; conditions: CYP450 2C8 supersomes, 60 min, 10 μM, average of two experiments
# CYP2C8, sequence (P10632 whole entry): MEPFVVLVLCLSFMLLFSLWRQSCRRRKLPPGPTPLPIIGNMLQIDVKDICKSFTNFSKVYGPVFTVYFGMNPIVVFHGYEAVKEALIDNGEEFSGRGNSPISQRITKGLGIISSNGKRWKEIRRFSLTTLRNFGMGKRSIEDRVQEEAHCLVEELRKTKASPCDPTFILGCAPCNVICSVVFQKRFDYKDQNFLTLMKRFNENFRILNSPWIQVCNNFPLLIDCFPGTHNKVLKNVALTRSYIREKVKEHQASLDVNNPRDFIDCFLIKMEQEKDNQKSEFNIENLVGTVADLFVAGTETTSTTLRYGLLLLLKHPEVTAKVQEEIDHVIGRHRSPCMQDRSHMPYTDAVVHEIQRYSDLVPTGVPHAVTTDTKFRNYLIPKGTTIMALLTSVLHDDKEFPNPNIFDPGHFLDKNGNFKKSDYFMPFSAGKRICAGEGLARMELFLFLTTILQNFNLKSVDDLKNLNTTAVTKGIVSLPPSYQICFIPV
# Protocol: (§1) Supersomes—Incubations were conducted in a final volume of 0.1 mL reaction buffer (50-100 mM potassium phosphate, pH 7.4 or 100 mM Tris-HCL, pH 7.4) according to protocol provided with each CYP450 supersome. Each reaction contained […] of CYP450 supersome, 1.3 mM NADP^+, 3.3 mM glucose-6-phosphate, 0.4 U/mL glucose-6-phosphate dehydrogenase, 3.3 mM MgCl2 and 10 μM Compound 1. Following incubation for 60 min at 37° C., 100 μL of stop solution (acetonitrile:methanol; 1:1) was added and samples centrifuged for 10 min at 10,000×g. The supernatant was then dried and reconstituted in 10 mM potassium phosphate, pH 5, further transferred to an HPLC glass vial and analyzed by HPLC-UV (described above).
# CYP3A4 [2] = target: CYP3A4 (Homo sapiens, UniProt P08684); assay: Incubation with human recombinant CYP450 supersomes, 3A4; type: in vitro ADME; conditions: CYP450 3A4 supersomes, 60 min, 10 μM, average of two experiments
# CYP3A4 (Homo sapiens, UniProt P08684), sequence (P08684 whole entry): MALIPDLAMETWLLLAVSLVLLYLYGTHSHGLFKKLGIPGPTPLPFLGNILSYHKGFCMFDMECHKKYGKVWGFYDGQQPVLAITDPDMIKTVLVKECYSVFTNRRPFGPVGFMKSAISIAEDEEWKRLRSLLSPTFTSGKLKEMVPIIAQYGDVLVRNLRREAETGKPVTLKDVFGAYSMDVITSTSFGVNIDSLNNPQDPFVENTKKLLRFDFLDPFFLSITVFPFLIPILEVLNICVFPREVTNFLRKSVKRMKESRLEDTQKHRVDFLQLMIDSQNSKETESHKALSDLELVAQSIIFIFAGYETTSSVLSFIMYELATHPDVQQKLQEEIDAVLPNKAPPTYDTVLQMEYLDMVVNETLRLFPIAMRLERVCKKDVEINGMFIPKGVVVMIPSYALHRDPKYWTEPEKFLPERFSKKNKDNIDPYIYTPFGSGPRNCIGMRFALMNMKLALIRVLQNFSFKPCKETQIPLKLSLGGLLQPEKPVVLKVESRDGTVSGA
# Protocol: as §1
# GS4.1 cells = assay: Cytotoxicity of Compound 1 and RBV on GS4.1 cells using MTS assay (combination study); conditions: three days, 0.6× to 1.5× EC50, alone or in combination
# Protocol: The readout of the assay was measured by the bioreduction of the yellow MTS tetrazolium compound to a purple formazan product. This conversion is mediated by NADPH or NADH in metabolically active cells and is therefore directly proportional to the number of live cells in a culture. Plates were setup as described above.
# Cells were plated and treated with inhibitors using the drug matrix described above.
# After three days of drug treatment, 20 μL of MTS was added to each well, and then plates were incubated at 37° C./5% CO2.
# [3] = test system: HCV genotype 1b replicon (Zluc cells); assay: HCV luciferase replicon assay; type: cell-based, hepatitis C virus; conditions: Hepatitis C virus, 72 h, 3 days
# Protocol: The HCV luciferase replicon assay measures the ability of a test compound to inhibit HCV replication in cell culture after 3 days of treatment in a human hepatoma cell line (Huh-7) bearing the HCV genotype 1b replicon and a luciferase-neomycin phosphotransferase fusion gene. The inhibition of HCV replication was measured by quantification of luciferase protein expression. The HCV luciferase replicon was constructed by fusing a luciferase gene to the amino terminus of the neomycin phosphotransferase gene of the ZS11 HCV replicon. The ZS11 HCV replicon (Zhu Q, Guo J-T, and Seeger C, 2003) is derived from the SP1 replicon, but contains three cell culture-adapted mutations: E1202G (NS3), S22041 (NS5A), and D2254E (NS5A). These mutations allow for efficient in vitro replication. The luciferase reporter gene was amplified from the pGL4.13[luc2/SV40] vector (Promega Corp.). The replicon resulting from the luciferase-neomycin fusion (ZS11-luc) was stably-transfected into Huh-7 cells, yielding the Zluc cell line.
# The luciferase replicon assay is summarized as follows: Solid white 96-well tissue culture plates (BD Falcon) were seeded with Zluc cells. Antiviral compound solutions were made up freshly in medium as 2×-concentrated stocks. Eight additional 3-fold drug dilutions were prepared from these stocks in medium for a total of 9 dilutions. At least four hours after Zluc cells were seeded, drug treatment was initiated by adding one volume of each 2×-concentrated drug dilution to one volume of cells/medium in the tissue culture plates. Cells were then incubated for 3 days at 37° C./5% CO2.
# The media/compound was then removed from the plates and the ONE-glo Luciferase assay reagent (Promega) was added to each well. The assay plates were shaken for 3 minutes at room temperature and luciferase activity for each well was measured with a 1 sec read time on the Victor^3V multilabel counter using a 700 nm cut-off filter (Perkin Elmer). EC50 values were calculated from dose response curves from the resulting best-fit equations determined by Microsoft Excel and XLfit 4.1 software.
# CYP3A4 [4] = assay: Effect of CYP3A4 inhibitors (ketoconazole, ritonavir) on metabolic stability in monkey liver microsomes; type: in vitro ADME; conditions: monkey microsomes 0.5 mg/mL, 30 min, 10 μM, NADPH
# Protocol: Incubations were conducted in a final volume of 0.1 mL per incubation time point. […] Final solvent (DMSO or methanol) concentration was maintained at 0.2%. Reactions were initiated by the addition of an NADPH regenerating system (1.3 mM NADP^+, 3.3 mM glucose-6-phosphate, 0.4 U/ml glucose-6-phosphate dehydrogenase, and 3.3 mM MgCl2, final concentrations). Incubations with no inhibitor served as control. Reactions were terminated at 30 min (monkey) or 60 min (rat and human) by the addition of 0.2 mL of stop solution (acetonitrile). The samples were vortex-mixed for 30 sec and then centrifuged at 10,000×g for 10 min. The supernatant was dried using a Labconco CentriVap concentrator and the dry residue reconstituted in water, transferred to an HPLC glass vial and analyzed by HPLC-UV method 1 (described above).
# Because Compound 1 is rapidly metabolized in monkey liver microsomes, incubation conditions were adjusted by reducing protein content to 0.5 mg/mL and incubation time to 30 min. Incubation conditions for rat and human were unchanged; protein was 1 mg/mL and incubation time was 60 min.
smiles,measurement,setting,value
"CC(C)(CO)C(=O)SCCOP(=O)(NCc1ccccc1)OC[C@H]1O[C@@H](n2cnc3c(=O)[nH]c(N)nc32)[C@](C)(O)[C@@H]1O (mixture of isomers) [Compound 1, 3-hydroxy-2,2-dimethyl-thiopropionic acid S-(2-{[(2R,3R,4R,5R)-5-(2-amino-6-oxo-1,6-dihydro-purin-9-yl)-3,4-dihydroxy-4-methyl-tetrahydro-furan-2-ylmethoxy]-benzylamino-phosphoryloxy}-ethyl) ester]",EC50,[1],400 ± 90 nM
same,% Residual Compound 1,CYP2C8,105%
same,% Residual Compound 1,CYP3A4 [2],62%
same,in vitro cytotoxicity (MTS),GS4.1 cells,no evidence of in vitro cytotoxicity
same,EC50,[3],68 ± 0.4 nM
same,% Residual Compound 1,CYP3A4 [4]; Ketoconazole 0.1 μM,68%
same,% Residual Compound 1,CYP3A4 [4]; Ketoconazole 1 μM,125%
same,% Residual Compound 1,CYP3A4 [4]; Ritonavir 0.1 μM,41%
same,% Residual Compound 1,CYP3A4 [4]; Ritonavir 1 μM,122%
same,% Residual Compound 1,CYP3A4 [4]; inhibitor 0 μM,25%
